Data reported in patent US9284325B2, “Spectinamides as anti-tuberculosis agents” (UNIVERSITY OF TENNESSEE RESEARCH FOUNDATION, priority 2009, dated 2016).
≈ marks a conversion by molar mass, not a printed value. Where a name gives a salt, the structure may show the parent alone. Read-outs that look alike come from different tables or passages of the source.

Assays:
[1] = Cytotoxicity, MTT cell proliferation assay; settings: African green monkey, Vero epithelial cells (ATCC CCL-81)
[2] = system: Vero epithelial cells; assay: Cytotoxicity, MTT cell proliferation assay; settings: Vero IC50 / M. tuberculosis MIC
[3] = system: E. coli ribosomes; assay type: biochemical; settings: for IC50, 50% inhibition of luciferase biosynthesis in S30 assay: E. coli S30 transcription/translation assay; for relative inhibitory activity on luciferase production: tested at 0.66 and 6.6 μM, FIG. 5
[4] = system: Vero epithelial cells; settings: African green monkey
[5] = system: E. coli K12; assay: MIC determination by microbroth dilution; assay type: cell-based, Escherichia coli; settings: Escherichia coli, K12
[6] = system: Strep. pyogenes ATCC 700294; assay: MIC determination by microbroth dilution; assay type: cell-based, Streptococcus pyogenes; settings: Streptococcus pyogenes, ATCC700294, read-out: MIC S. pyogenes
[7] = system: Klebsiella pneumoniae ATCC 33495; assay: MIC determination by microbroth dilution; assay type: cell-based; settings: ATCC33495
[8] = system: Burkholderia cepacia ATCC 25416; assay: MIC determination by microbroth dilution; assay type: cell-based; settings: ATCC25416, read-out: MIC B. cepcia
[9] = system: B. anthracis Sterne 34F2; assay: microbe, parasite or virus in culture; assay type: cell-based, Bacillus anthracis; settings: Bacillus anthracis, STERNE34F2, read-out: MIC B. anthracis 34F2
[10] = system: P. aeruginosa PAO1; assay: MIC determination by microbroth dilution; assay type: cell-based, Pseudomonas aeruginosa; settings: Pseudomonas aeruginosa
[11] = system: Strenotrophomonas maltophilia ATCC 13637; assay: MIC determination by microbroth dilution; assay type: cell-based
[12] = system: E. coli K12 ΔtolC; assay: microbe, parasite or virus in culture; assay type: cell-based; settings: Escherichia coli, read-out: MIC E. coli K12 ΔtolC
[13] = system: Strep. pneumoniae DAW27 or strain R6; assay: MIC determination by microbroth dilution; assay type: cell-based, Streptococcus pneumoniae; settings: Streptococcus pneumoniae; Strep. pneumoniae DAW27 or strain R6 (for 1443-1544); read-out: MIC S. pneumoniae
[14] = system: Acinetobacter baumannii ATCC 19606; assay: MIC determination by microbroth dilution; assay type: cell-based; settings: ATCC19606
[15] = system: Borrelia burgdorferi; settings: spirochete Borrelia burgdorferi, Criswell et al.; cited from earlier work
[16] = system: S. aureus 8325 or strain ATCC 29213; assay: MIC determination by microbroth dilution; assay type: cell-based, Staphylococcus aureus; settings: Staphylococcus aureus, ATCC29213; S. aureus 8325 or strain ATCC 29213 (for 1471-1544)
[17] = system: Proteus vulgaris ATCC 33420; assay: MIC determination by microbroth dilution; assay type: cell-based; settings: ATCC33420
[18] = system: M. tuberculosis H37Rv; assay: MIC determination by microbroth dilution, anti-tuberculosis activity; assay type: cell-based, Mycobacterium tuberculosis; settings: for MIC: Mycobacterium tuberculosis, H37RV, 168 h, read-out: MIC
[19] = system: Proteus mirabilis ATCC 25933; assay: MIC determination by microbroth dilution; assay type: cell-based; settings: ATCC25933
[20] = system: E. faecalis ATCC 33186; assay: MIC determination by microbroth dilution; assay type: cell-based, Enterococcus faecalis; settings: Enterococcus faecalis, ATCC33186
[21] = system: protein synthesis in whole cell M. bovis BCG; assay type: cell-based

For `CC[C@@H](CO)NCCN[C@@H](CC)CO` [Ethambutol], the IC50 at 72 h [1] was 732 µg/mL (≈ 3580 µM) and the “therapeutic index (IC50 divided by the MIC)” value [2] was 913.8.
With `CN[C@@H]1[C@H](O)[C@H](NC)[C@H]2O[C@@]3(O)C(=O)C[C@@H](C)O[C@H]3O[C@@H]2[C@H]1O` [Spectinomycin, reference compound] the IC50 ([3]; E. coli S30 system, FIG. 4, read-out: concentration causing 50% reduction in the synthesis of luciferase) was 900 nM, the “IC50, 50% inhibition of luciferase biosynthesis in S30 assay” value (from here on “IC50, 50% inhibition”) [3] was 0.32 µg/mL and the “therapeutic index (IC50 divided by the MIC)” value [4] was 41.5. It also gave an MIC [5] of 12.5 to 50 µg/mL (≈ 37.6 to 150 µM), an MIC [6] of 25 µg/mL (≈ 75.2 µM) and an MIC [7] of 50 µg/mL (≈ 150 µM). The MIC [8] was greater than 200 µg/mL, the MIC [9] was 25 µg/mL (≈ 75.2 µM) and the MIC [10] was 100 µg/mL (≈ 301 µM). For the same compound, the MIC [11] was greater than 200 µg/mL, the MIC [12] was 12.5 µg/mL (≈ 37.6 µM) and the MIC [13] was 50 µg/mL (≈ 150 µM). The MIC [14] was greater than 200 µg/mL, the “frequency at which resistance arises” value [15] was 10^−6 and the MIC [16] was 25 µg/mL (≈ 75.2 µM). The MIC [17] was 50 µg/mL (≈ 150 µM), the IC50 at 72 h [1] was 1030 µg/mL (≈ 3100 µM) and the MIC [18] was 25 µg/mL (≈ 75.2 µM). It also gave an MIC [19] greater than 200 µg/mL and an MIC [20] of 50 µg/mL (≈ 150 µM).
With `CN[C@@H]1[C@H](O)[C@H](NC)C2O[C@]3(O)C(OC2[C@H]1O)O[C@H](C)C[C@H]3NCc1ccco1` (stereo partly drawn) [Compound 1422, 3′-Dihydro-3′-deoxy-4(R)-furan-2yl-methylamino spectinomycin Trihydrochloride] the “relative inhibitory activity on luciferase production” value [3] was “inhibited well”, the MIC [5] was 25 µg/mL and the MIC [6] was 200 µg/mL. For the same compound, the MIC [7] was greater than 200 µg/mL, the MIC [8] was greater than 200 µg/mL and the MIC [9] was 12.5 µg/mL. It also gave an MIC [10] of 25 µg/mL, an MIC [11] greater than 200 µg/mL and an MIC [12] of 12.5 µg/mL. The MIC [13] was 50 µg/mL, the MIC [14] was greater than 200 µg/mL and the MIC [16] was 25 µg/mL. It also gave an MIC [17] greater than 200 µg/mL, an MIC [18] of 200 µg/mL and an MIC [19] greater than 200 µg/mL. The MIC [20] was 12.5 µg/mL.
In the case of `[H]/N=C(/N)N[C@H]1[C@H](O)[C@@H](O)[C@H](O[C@@H]2O[C@@H](C)[C@](O)(C=O)[C@H]2O[C@@H]2O[C@@H](CO)[C@H](O)[C@@H](O)[C@@H]2NC)[C@@H](N/C(N)=N\[H])[C@@H]1O` [Streptomycin, reference compound], the “IC50, 50% inhibition” value [3] is reported as 0.27 µg/mL, the “therapeutic index (IC50 divided by the MIC)” value [4] is reported as 7680.5 and the MIC [5] is reported as 0.8 µg/mL (≈ 1.38 µM). For the same compound, the MIC [6] was 25 µg/mL (≈ 43 µM), the MIC [7] was greater than 200 µg/mL and the “inhibition of protein synthesis” value [21] was “inhibited protein synthesis”. For the same compound, the MIC [8] was greater than 200 µg/mL, the MIC [9] was 0.8 µg/mL (≈ 1.38 µM) and the MIC [10] was 25 µg/mL (≈ 43 µM). For the same compound, the MIC [11] was 3.12 µg/mL (≈ 5.36 µM), the MIC [12] was 1.6 µg/mL (≈ 2.75 µM) and the MIC [13] was 12.5 µg/mL (≈ 21.5 µM). For the same compound, the MIC [14] was greater than 200 µg/mL, the “frequency at which resistance arises” value [15] was ≥ 10^−7 and the MIC [16] was 0.4 µg/mL (≈ 0.688 µM). The MIC [17] was 1.6 µg/mL (≈ 2.75 µM), the IC50 at 72 h [1] was 1540 µg/mL (≈ 2640 µM) and the “Activity (MIC) of 1329 compared to streptomycin” value [18] was 0.2. It also gave an MIC [19] of 50 µg/mL (≈ 86 µM) and an MIC [20] of 50 µg/mL (≈ 86 µM).
In the case of `CN[C@@H]1[C@H](O)[C@H](NC)C2O[C@]3(O)C(OC2[C@H]1O)O[C@H](C)C[C@H]3NCc1ccc(F)cc1` (stereo partly drawn) [Compound 1424, 3′-Dihydro-3′-deoxy-4(R)-4-fluoro)benzylamino spectinomycin Trihydrochloride], the “IC50, 50% inhibition” value [3] is reported as 0.80 µg/mL, the “relative inhibitory activity on luciferase production” value [3] is reported as “inhibited well” and the MIC [5] is reported as 200 µg/mL. It also gave an MIC [6] of 50 µg/mL, an MIC [7] greater than 200 µg/mL and an MIC [8] greater than 200 µg/mL. The MIC [9] was 100 µg/mL, the MIC [10] was 200 µg/mL and the MIC [11] was greater than 200 µg/mL. It also gave an MIC [12] of 50 µg/mL, an MIC [13] of 25 µg/mL and an MIC [14] greater than 200 µg/mL. The MIC [16] was 50 µg/mL, the MIC [17] was greater than 200 µg/mL and the MIC [18] was 200 µg/mL. For the same compound, the MIC [19] was greater than 200 µg/mL and the MIC [20] was 100 µg/mL.
With `CN[C@@H]1[C@H](O)[C@H](NC)C2O[C@]3(O)C(OC2[C@H]1O)O[C@H](C)C[C@H]3NC(=O)Cc1ccccc1` (stereo partly drawn) [Compound 1398, 3′-Dihydro-3′-deoxy-4(R)-phenylacetylamino spectinomycin Dihydrochloride] the “IC50, 50% inhibition” value [3] was 0.78 µg/mL, the MIC [5] was greater than 200 µg/mL and the MIC [6] was 50 µg/mL. It also gave an MIC [7] greater than 200 µg/mL, an MIC [8] greater than 200 µg/mL and an MIC [9] of 100 µg/mL. The MIC [10] was 100 µg/mL, the MIC [11] was greater than 200 µg/mL and the MIC [12] was 200 µg/mL. It also gave an MIC [13] of 100 µg/mL, an MIC [14] greater than 200 µg/mL and an MIC [16] of 100 µg/mL. The MIC [17] was greater than 200 µg/mL, the MIC [18] was 6.1 µg/mL and the MIC [19] was greater than 200 µg/mL. It also gave an MIC [20] greater than 200 µg/mL.
